Experimental data as given in patent US9095567B2, “Vaccine formulations” (priority 2010, dated 2015).

Tests used:
[1] = tested on: Staphylococcus aureus, Pseudomonas aeruginosa, Candida albicans, Aspergillus niger; assay: Preservative effectiveness test, single challenge, all challenge organisms (pharmacopeial acceptance criteria); type: cell-based; conditions: for preservative effectiveness after storage: 2-PE at 3.5 to 5.0 mg/dose
From the text: For ascertaining preservative levels according to U.S. and European Pharmacopeias (USP and EP, respectively), the vaccine formation is inoculated once with approximately 10^5 to 10^6 CFU/ml at time 0 (CFU=colony forming units) of:
USP 29 NF 24 Supplement 2 (USP) requires that, after an inoculation of bacterial micro-organism(s), there is at least 1.0 log reduction from the initial calculated count (i.e., at time of inoculation) at 7 days, at least 3.0 log reduction at 14 days from the previous value measured, and no increase at 28 days compared to the previous value measured. For yeast and fungi, the USP requirement is for there to be no increase from time of inoculation at 7, 14 and 28 days.
EP requirements are more stringent. EP 5th Edition 5.6 (5.1.3) requirements for parenteral and ophthalmic preparations has two components: Category A and Category B. Category A (EP-A) requires, for bacteria, at least 2.0 log reduction from the initial calculated count at 6 hours after inoculation, at least 3.0 log reduction from the previous value measured at 24 hours and no recovery at 28 days. Category B (EP-B) requires, for bacteria, at least 1.0 log reduction from the initial calculated count at 24 hours, at least 3.0 log reduction at 7 days from the previous value measured and not more than 0.5 log increase from the previous value measured (i.e., no increase) at 28 days. For yeast and fungi, Category A requires at least 2.0 log reduction at 7 days from the initial calculated count, and no increase at 28 days from the previous measured value; and Category B requires at least 1.0 log reduction from the initial calculated count at 14 days and no increase at 28 days from the previous measured value.
Thirty milliliters (ml) of each vaccine formulation with and without Thimerosal or 2-PE at indicated concentrations or saline containing Thimerosal at 0.02% were inoculated in triplicates with a suspension of each test organism to achieve an inoculum density of approximately 10^5 to 10^6 CFU/ml at time 0 (CFU=colony forming units). […] Samples were mixed to ensure even distribution of challenged organisms. Another 30 ml of vaccine in triplicate (with and without preservative) were used as a negative control and spiked with the culture media alone to evaluate the inherent contamination that might be present in the sample or media. Each of the three series of vaccines, and positive and negative controls, was then separately incubated at 20 to 25° C. Aliquots (1 ml) of the challenged samples and controls (or their appropriate serial ten fold dilutions) were enumerated by plate count in duplicates at time 0 and at intervals of 6 hours, 24 hours, 7 days, 14 days and 28 days post-inoculation.
USP 29 NF 24 Supplement 2 (USP) requires that, after an inoculation of bacterial micro-organism(s), there is at least 1.0 log reduction from the initial calculated count (i.e., at time of inoculation) at 7 days, at least 3.0 log reduction at 14 days from the previous value measured and no increase at 28 days from the previous measured value. For yeast and fungi, the USP requirement is for there to be no increase from the time of inoculation to 7, 14 and 28 days.
EP requirements are more stringent. EP 5th Edition 5.6 (5.1.3) requirements for parenteral and ophthalmic preparations has two components: Category A and Category B. Category A (EP-A) requires, for bacteria, at least 2.0 log reduction from the initial calculated count at 6 hours after inoculation, at least 3.0 log reduction at 24 hours from the previous measured value, and no recovery at 28 days. Category B (EP-B) requires, for bacteria, at least 1.0 log reduction at 24 hours from the initial calculated count, at least 3.0 log reduction at 7 days from the previous value measured and not more than 0.5 log increase at 28 days from the previous value measured (i.e., no increase).

S. aureus = assay: Multi-challenge method, S. aureus decay (non-linear regression analysis); type: cell-based
Procedure: To represent the worst reasonable case of contamination that may occur in practice during the repeated use of a multi-dose presentation, WHO requires safety testing with deliberate exposure to multiple contamination events using bacterial strains, Pseudomonas Aeruginosa (“PA”), Staphylococcus Aureus (“SA”), Escherichia coli (“EC”) and Bacillus subtilis (“BA”). Formulations are spiked with 5×10^3 CFU/ml of each organism at times 0, 6 hours, 24 hours, 7 days and 14 days after initial challenge and stored either at 2-8° C. or at 22-24° C. to mimic the potential storage conditions in practice.
To assess the appropriateness of WHO multi-dose Open Vial Policy of vaccines in multiple immunization sessions for up to maximum of four weeks, experimental design provided by WHO was implemented. In this study, the effectiveness of Thimerosal was evaluated at the concentration that is present in the majority of U.S. licensed vaccines (0.01%), as well as at a higher concentration of 0.02%. To represent the worst reasonable case of contamination that may occur in practice during the repeated use of a multi-dose presentation, and to test WHO requirements, Prev(e)nar 13 vaccine formulations with 0.01 or 0.02% Thimerosal or with 5.0 mg/dose of 2-PE were deliberately exposed to multiple contamination events using WHO recommended bacterial strains, P. aeruginosa, S. aureus, E. coli and B. subtilis. Formulations were spiked with 5×10^3 CFU/ml of each organism at times 0, 6 hours, 24 hours, 7 days and 14 days after initial challenge and stored either at 2-8° C. or at 22-24° C. to mimic the potential storage conditions in practice. Saline formulation containing 0.02% Thimerosal was also used as a control to evaluate the potential impact of Prev(e)nar 13 on the antimicrobial efficacy of Thimerosal in the formulation.
As shown in the non-linear regression analysis of decay in the viability of S. aureus is summarized in FIG. 12, the rate of decay of S. aureus was substantially slower ([…], with 50% decay in 30.28 days) when formulation was stored at 2-8° C. compared to that stored at 22-24° C. (−1.39 log10 decay per day, with 50% decay in 6.2 days) (FIG. 12).

[2] = 2-PE at 2.5 mg/dose, single challenge
[3] = Thimerosal at 0.01% in Prev(e)nar 13 vaccine formulation, single challenge
[4] = Thimerosal at 0.02% (50 μg mercury per dose), single challenge
[5] = Thimerosal at 0.04% (100 μg mercury per dose), single challenge
[6] = 0.01% Thimerosal in Prev(e)nar 13, stored at 2-8° C.
[7] = 0.01% Thimerosal in Prev(e)nar 13, stored at 22-24° C.

SMILES: OCCOc1ccccc1 [2-PE, 2-phenoxyethanol]
- EP-A anti-microbial effectiveness acceptance criteria [1]: met
- EP-B anti-microbial effectiveness acceptance criteria [1]: met
- EP acceptance criteria A [1, 2]: failed
- EP acceptance criteria B [1, 2]: failed
- preservative acceptance criteria EP-B ([1]; 2-PE at 3.5 mg/dose, single challenge): meet
- preservative acceptance criteria EP-B ([1]; 2-PE at 5 mg/dose, single challenge): meet
- preservative effectiveness after storage ([1]; formulations stored at 2-8° C. for two and a half years): remained persistent
- preservative effectiveness after storage ([1]; formulations stored at 37° C. for a month): remained persistent
- EP acceptance criteria B ([1]; 2-PE at concentrations of 3.5 to 5.5 mg/dose, single challenge): met
- effectiveness as a preservative compared with Thimerosal ([1]; Prev(e)nar 13 formulation, single challenge): more effective
- inactivation of S. aureus viability compared with Thimerosal (S. aureus; 5 mg/dose of 2-PE in Prev(e)nar 13, single or multiple challenge, either storage temperature): stronger
- rate of S. aureus decay (50% decay and average slope) compared with Thimerosal (S. aureus; vaccine formulations with 2-PE, non-linear regression analysis): faster

SMILES: C[CH2][Hg][S]c1ccccc1C(=O)[O-].[Na+] [Thimerosal]
- contamination levels of all four inoculated micro-organisms ([1]; 0.01% Thimerosal in Prev(e)nar 13, single challenge, 20-25° C., 28 days): reduced
- European acceptance criteria EP-A [1, 3]: did not meet
- European acceptance criteria EP-B [1, 3]: did not meet
- acceptance limits established by the Japanese Pharmacopoeia [1, 3]: did pass
- acceptance limits established by the U.S. Pharmacopoeia [1, 3]: did pass
- EP acceptance criteria A [1, 4]: not
- EP acceptance criteria B [1, 4]: met
- EP acceptance criteria A [1, 5]: not
- EP acceptance criteria B [1, 5]: met
- reduction of S. aureus (S. aureus; 0.01% Thimerosal in Prev(e)nar 13, multiple challenges, particularly at 2-8° C.): slow
- rate of decay of S. aureus (S. aureus; [6]): −5.98 log10 decay per day
- time to 50% decay of S. aureus (S. aureus; [6]): 30.28 days
- rate of decay of S. aureus (S. aureus; [7]): −1.39 log10 decay per day
- time to 50% decay of S. aureus (S. aureus; [7]): 6.2 days
- rate of decay of S. aureus in saline formulation versus vaccine formulation (S. aureus; 0.02% Thimerosal, multiple challenges): more pronounced
